The results in this text go back to the Kinase Knowledgebase extract (Sharma et al. 2016).

One experiment deals with MAPK14 (UniProt Q16539). As to the kind of experiment: Assessment of MAPK14 Kinase Activity Using Spectrophotometric Assay.
MAPK14, sequence (Q16539 whole entry, looked up): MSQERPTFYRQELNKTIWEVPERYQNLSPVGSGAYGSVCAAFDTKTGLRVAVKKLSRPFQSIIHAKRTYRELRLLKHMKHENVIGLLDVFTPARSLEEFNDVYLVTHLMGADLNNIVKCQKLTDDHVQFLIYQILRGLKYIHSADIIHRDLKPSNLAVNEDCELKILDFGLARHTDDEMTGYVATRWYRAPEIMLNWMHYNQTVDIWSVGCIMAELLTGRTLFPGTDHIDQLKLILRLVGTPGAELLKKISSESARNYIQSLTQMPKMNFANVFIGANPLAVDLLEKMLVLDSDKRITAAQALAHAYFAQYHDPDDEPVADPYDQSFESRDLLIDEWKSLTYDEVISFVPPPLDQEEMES
Conditions: not given
What is called IC50 is the concentration that inhibits the measured activity by half. A high value points to weaker potency in that assay. In the case of `CC(C)(C)c1cc(NC(=O)Nc2cccc3c2C=NC3=O)n(-c2cccc(CC(N)=O)c2)n1`, the 50% inhibitory concentration (IC50) was 120 nM.

In the case of `CC(C)(C)c1cc(NC(=O)Nc2cccc(Cl)c2Cl)n(-c2cccc(CC(=O)O)c2)n1`, the concentration for half-maximal inhibition (IC50) was determined as 22 nM.

The compound `O=C(Nc1cccc(Cl)c1Cl)Nc1cc(-c2ccccc2F)nn1-c1ccc(CC(=O)N2CC[C@H](CO)C2)cc1` displayed an IC50 of 37 nM.

With `CN1C(=O)C(c2cccc(NC(=O)Nc3cc(C(C)(C)C)nn3-c3ccc4c(c3)CCN4)c2)C=C2C=NC=NC21` (centres undefined), the 50% inhibitory concentration (IC50) is 13 nM.

`CC(O)c1cc(-n2nc(C(C)(C)C)cc2NC(=O)Nc2cccc(Cl)c2Cl)cc2ccccc12` (centres undefined) gave a concentration for half-maximal inhibition (IC50) of 150 nM.

In the case of `CC(C)(C)c1cc(NC(=O)Nc2cccc(Cl)c2Cl)n(-c2ccc(CCC(=O)O)cc2)n1`, the half-inhibitory concentration (IC50) amounted to 14 nM.

Compound `O=C(O)CCc1ccc(-n2nc(-c3cccs3)cc2NC(=O)Nc2cccc(Cl)c2Cl)cc1` showed an IC50 of 30 nM.

Take `COc1cccc(-n2nc(C(C)(C)C)cc2NC(=O)Nc2cccc(Br)c2)c1`: the 50% inhibitory concentration (IC50) was 354 nM.

On to `CC(C)(C)c1cc(NC(=O)Nc2cccc(Cl)c2)n(-c2cccc(CN)c2)n1`, for which the IC50 came to 110 nM.

As to `CN1C(=O)C(c2cccc(NC(=O)Nc3cc(C(C)(C)C)nn3-c3ccc4c(c3)CCN4S(C)(=O)=O)c2)C=C2C=NC=NC21` (centres undefined), the IC50 came to 28 nM.

Staying with this experiment, now noted: concentration not given here.
A word on the inhibition: it is how much of the control response was suppressed. A low value points to a response near the control. With `Cc1ccc(NC(=O)Nc2cc(C(C)(C)C)nn2-c2cccc(CC(N)=O)c2)cc1Nc1ncccn1`, the inhibition is 90%.

`CC(C)(C)c1cc(NC(=O)N2=CC=C3C=CC=CC3=C2)n(n1)c4cccc(CCC(=O)O)c4`: the inhibition amounted to 58%.

Compound `CC(C)(C)c1cc(NC(=O)Nc2cccc(-c3ncccn3)c2)n(-c2cccc(CC(N)=O)c2)n1` registered an inhibition of 57%.

The compound `NC(=O)Cc1cccc(-n2nc(C3CCCC3)cc2NC(=O)Nc2ccc(-c3cccc4c3C=NC4=O)cc2)c1` gave an inhibition of 82%.
